# Tested on: Human artery smooth muscle cells
# Assay: Smooth muscle cell proliferation (cell count by flow cytometry)
# Assay type: cell-based
# Details: 0.01-1 μM, 48 h; FIG. 6, FIG. 7A
# Protocol: Human artery smooth muscle cells were seeded at 20,000 cells per well on 24-well plates (3 wells per condition) in growth medium and allowed to adhere overnight at 37° C. […] Cells were washed with PBS, trypsinized, and counted using a flow cytometer (Beckman-Coulter FC500).
smiles,measurement,value
"COCc1c(C(C)C)nc(C(C)C)c(/C=C/[C@@H](O)C[C@@H](O)CC(=O)O)c1-c1ccc(F)cc1 [free cerivastatin, (3R,5S,6E)-7-[4-(4-fluorophenyl)-5-(methoxymethyl)-2,6-bis(propan-2-yl)pyridin-3-yl]-3,5-dihydroxyhept-6-enoic acid]",proliferation of SMCs,inhibits the proliferation of SMCs

# — patent US20240189221A1, “METHODS AND FORMULATIONS FOR TREATING VASCULAR DISEASE” (ENDOPERFUSION SOLUTIONS, LLC, priority 2015, published 2024)
